Measured values as given in US8252822B2, “Heterocyclic compounds and uses as anticancer agents” (Acea Biosciences, Inc., priority 2007, dated 2012).
Read-outs that look alike come from different tables or passages of the source.

Assays:
[1] = system: MCF7; test: RT-CES cell proliferation inhibition, MCF7; format: cell-based; conditions: Homo sapiens
From the text: (§1) The biological activity of compounds disclosed herein was monitored and profiled using the Real-Time Cell Electronic Sensing (RT-CES®) system from ACEA Biosciences, Inc. The RT-CES system utilizes cell-substrate impedance technology to monitor cellular behavior inside tissue culture wells in a microtiter plate format. The technology features in the integration of molecular and cell biology with microelectronics and is based on the electronic detection of biological assay process. The details of this cell electronic sensing technology and associated devices, systems and methods of use as described in U.S. provisional application No. 60/379,749, filed on Jul. […]
(§2) For measurement of cell-substrate or cell-electrode impedance using RT-CES technology, microelectrodes having appropriate geometries are fabricated onto the bottom surfaces of microtiter plate or similar device, facing into the wells. […] When there are changes to the biological status of the cells analogue electronic readout signals are measured automatically and in real time, and are converted to digital signals for processing and for analysis. In a RT-CES system, a cell index (arbitrary representation of change in impedance) is automatically derived and provided based on measured electrode impedance values. […]
(§3) To quantify cell status based on the measured cell-electrode impedance, a parameter termed Cell Index is derived. […]

[2] = system: SKOV3; test: RT-CES cell proliferation inhibition, SKOV3; format: cell-based; conditions: Homo sapiens, SK-OV-3
From the text: as §1, §2, §3

[3] = system: GTL16; test: RT-CES cell proliferation inhibition, GTL16; format: cell-based; conditions: Homo sapiens, GTL 16
From the text: as §1, §2, §3

[4] = system: B16-luc; test: RT-CES cell proliferation inhibition, B16-luc; format: cell-based, Rat; conditions: Mus musculus
From the text: as §1, §2, §3

[5] = system: Hela; test: RT-CES cell proliferation inhibition, Hela; format: cell-based; conditions: Homo sapiens
From the text: as §1, §2, §3

[6] = system: 3T3; test: RT-CES cell proliferation inhibition, 3T3; format: cell-based; conditions: Mus musculus, NIH3T3
From the text: as §1, §2, §3

[7] = system: MCF7adr; test: RT-CES cell proliferation inhibition, MCF7adr; format: cell-based; conditions: Homo sapiens, NCI/ADR-RES
From the text: as §1, §2, §3

[8] = system: A549 cells; test: RT-CES cell proliferation inhibition, A549; format: cell-based, Human; conditions: for IC50: Homo sapiens
From the text: The biological activity of compounds disclosed herein was monitored and profiled using the Real-Time Cell Electronic Sensing (RT-CES®) system from ACEA Biosciences, Inc. The RT-CES system utilizes cell-substrate impedance technology to monitor cellular behavior inside tissue culture wells in a microtiter plate format. The technology features in the integration of molecular and cell biology with microelectronics and is based on the electronic detection of biological assay process. The details of this cell electronic sensing technology and associated devices, systems and methods of use as described in U.S. provisional application No. 60/379,749, filed on Jul. 20, 2002; U.S. provisional application No. 60/435,400, filed on Dec. 20, 2002; U.S. Provisional application 60/469,572, filed on May 9, 2003, PCT application number PCT/US03/22557, filed on Jul. 18, 2003; PCT application number PCT/US03/22537, filed on Jul. 18, 2003; U.S. patent application Ser. No. 10/705,447, filed on Nov. 10, 2003; U.S. patent application Ser. No. 10/705,615, filed on Nov. 10, 2003, each of which is incorporated by reference. Additional details of RT-CES technology is further disclosed in U.S. provisional application No. 60/519,567, filed on Nov. 12, 2003, and U.S. provisional application No. 60/542,927, filed on Feb. 9, 2004.
For measurement of cell-substrate or cell-electrode impedance using RT-CES technology, microelectrodes having appropriate geometries are fabricated onto the bottom surfaces of microtiter plate or similar device, facing into the wells. Cells are introduced into the wells of the devices, and make contact to and attach to the electrode surfaces. The presence, absence or change of properties of cells affects the electronic and ionic passage on the electrode sensor surfaces. Measuring the impedance between or among electrodes provides important information about biological status of cells present on the sensors. When there are changes to the biological status of the cells analogue electronic readout signals are measured automatically and in real time, and are converted to digital signals for processing and for analysis. In a RT-CES system, a cell index (arbitrary representation of change in impedance) is automatically derived and provided based on measured electrode impedance values. The cell index obtained for a given well reflects: 1) how many cells are attached to the electrode surfaces in this well; 2) how well cells are attached to the electrode surfaces in this well. Thus, the more the cells of same type in similar physiological conditions attach the electrode surfaces, the larger the cell index. And, the better the cells attach to the electrode surfaces (e.g., the cells spread-out more to have larger contact areas, or the cells attach tighter to electrode surfaces), the larger the cell index.
The RT-CES system comprises three components, an electronic sensor analyzer, a device station and 16× or 96× microtiter devices. Microelectrode sensor array was fabricated on glass slides with lithographical microfabrication methods and the electrode-containing slides are assembled to plastic trays to form electrode-containing wells. The device station receives the 16× or 96× microtiter plate devices and is capable of electronically switching any one of the wells to the sensor analyzer for impedance measurement. In operation, the devices with cells cultured in the wells are placed into a device station that is located inside an incubator. Electrical cables connect the device station to the sensor analyzer. Under the RT-CES software control, the sensor analyzer can automatically select wells to be measured and continuously conduct impedance measurements. The impedance data from the analyzer is transferred to a computer, analyzed and processed by the integrated software.
as §3

[9] = system: murine Lewis lung cancer (LLC); test: Anti-tumor activity against LLC mice model; format: in vivo, C57 BL/6 mice; conditions: 40 mg/kg; for Tumor Weight / Inhibition Rate (%): LLC, 12 days; for Tumor Weight: qod (Table 14); for Inhibition Rate (%): qod (Table 14; text qd); for Body Weight (g) Start: mouse, in vivo
Method: ACEA100160 (2-(4-ethoxyphenyl)amino-4-(6-methylimidazo[1,2-a]pyrimidin-3-yl)thiazole) and ACEA 100162 (2-(4-ethoxyphenyl)amino-4-(6-methylimidazo[2,1-b]thiazol-5-yl)thiazole) are prepared at concentration of 8 mg/ml in solution containing 20% HP-beta-CD dextrose (D5W). The solvent HP-beta-CD solution is used as a vehicle negative control.
LLC: murine Lewis lung cancer cell line.
LLC cells were cultured in DMEM medium with 10% FBS to obtain the necessary cell number for injection subcutaneously (10^7 cells).
Under a sterilized condition, sacrifice the C57 BL/6 murine LLC bearing mice, separate tumor and put it into NS. Chop the tumor into fine pieces with sterilized scissors and then homogenate into cell suspension. Inject 0.2 ml cell suspension (10^6 cells) subcutaneously into the left flank on C57 BL/6 mice. On the first treatment day before iv or ip, implanted animals are randomly divided into seven groups as following. The drugs were administrated in the schedule of Table 13 respectively. The solvent HP-beta-CD solution is used as a vehicle negative control. Observe clinical signs at least daily.
Tumor weight was recorded. The tumor inhibitory rate was calculated as follows: inhibitory rate=1-Wt/W0, where Wt is the average weight of each drug treatment group and W0 is the average weight of negative control group. Results are given as mean±SD values from n animals. Comparisons between groups were made with Student's two-tailed t test and a P<0.05 was considered significant.

IC50 ([1]; MCF7, 24 hrs, read-out: IC50 (24 hr)): > 200 nM
IC50 ([1]; MCF7, 48 hrs, read-out: IC50 (48 hr)): > 200 nM
IC50 ([2]; SKOV3, 24 hrs, read-out: IC50 (24 hr)): 19.8 nM
IC50 ([2]; SKOV3, 48 hrs, read-out: IC50 (48 hr)): 11.5 nM
IC50 ([4]; 24 hrs, read-out: IC50 (24 hr)): 705 nM
IC50 ([4]; 48 hrs, read-out: IC50 (48 hr)): 643 nM
IC50 ([5]; 24 hrs, read-out: IC50 (24 hr)): 5.85 nM
IC50 ([5]; 48 hrs, read-out: IC50 (48 hr)): 6.95 nM
IC50 ([7]; 24 hrs, read-out: IC50 (24 hr)): 12.3 nM
IC50 ([7]; 48 hrs, read-out: IC50 (48 hr)): 12.5 nM
IC50 ([8]; A549, 48 hrs, read-out: IC50 (48 hr)): 29.1 nM
Compound: Br.CCOc1ccc(Nc2nc(-c3c(C)nc4sccn34)cs2)cc1 [Compound 27, 2-(4-ethoxyphenyl)amino-4-(6-methylimidazo[2,1-b]thiazol-5-yl)thiazole]
IC50 ([3]; GTL16, 24 hrs, read-out: IC50 (24 hr)): 138 nM
IC50 ([3]; GTL16, 48 hrs, read-out: IC50 (48 hr)): 2.1 nM
IC50 ([6]; 3T3, 24 hrs, read-out: IC50 (24 hr)): 20.6 nM
IC50 ([6]; 3T3, 48 hrs, read-out: IC50 (48 hr)): 51.5 nM
concentration at or above which cell indices first decreased with time and then increased ([8]; A549, complex kinetic responses): ≥ 62.5 nM
IC50 ([8]; A549, 24 hours after compound treatment, normalized Cell Index, read-out: IC50 (24 hr)): 57.4 nM
inhibitory ability against the proliferation of A549 cells ([8]; various concentrations studied, time-dependent cell index): exhibited inhibitory ability against the proliferation of A549 cells
Tumor Weight ([9]; IP): 0.70 ± 0.46 g
Inhibition Rate (%) ([9]; IP, listed as 162, 40 mg/kg): 39.2%
Inhibition Rate (%) ([9]; IP, listed as ACEA100162, 40 mg/kg): 39.15%
Tumor Weight ([9]; IV): 0.91 ± 0.18 g
Inhibition Rate (%) ([9]; IV): 25.5%
Body Weight (g) Start ([9]; ip): 19.0 ± 0.8 g
Body Weight (g) Start ([9]; iv): 18.5 ± 1.3 g
